36 molecules from patent US7425640B2, “Substituted 5-carboxyamide pyrazoles and [1,2,4]triazoles as antiviral agents” (priority 2004, dated 2008) can be followed below.

As a reminder, the IC50 is the concentration needed to halve the response being measured.

Each structure is given as a SMILES string. A value given as a limit tells only on which side of the number the result lay.

For one experiment, the target named is HCV RNA-dependent RNA polymerase NS5B (Δ21) (Hepatitis C virus genotype 1b, UniProt P26663). Nature of the experiment: Assay for HCV RNA-dependent RNA polymerase activity (SPA, [3H]-GTP incorporation). In kind it is biochemical. The note with it: read-out: Δ21 Activity (IC50 μM); 50 nM NS5B (Δ21), class symbols. The protocol: Inhibitory activity of the present compounds against HCV RNA-dependent RNA polymerase was assayed according to the methods disclosed in United States Patent Application US2004/038993, content of which is incorporated herein by reference; and those described in Ferrari, E.; Wright-Minogue, J.; Fang, J. W. S.; Baroudy, B. M.; Lau, J. Y. N.; Hong, Z. J. Virol. 1999, 73, 1649.
Sequence of HCV RNA-dependent RNA polymerase NS5B (Δ21) (P26663 2420-2989, stated change not applied): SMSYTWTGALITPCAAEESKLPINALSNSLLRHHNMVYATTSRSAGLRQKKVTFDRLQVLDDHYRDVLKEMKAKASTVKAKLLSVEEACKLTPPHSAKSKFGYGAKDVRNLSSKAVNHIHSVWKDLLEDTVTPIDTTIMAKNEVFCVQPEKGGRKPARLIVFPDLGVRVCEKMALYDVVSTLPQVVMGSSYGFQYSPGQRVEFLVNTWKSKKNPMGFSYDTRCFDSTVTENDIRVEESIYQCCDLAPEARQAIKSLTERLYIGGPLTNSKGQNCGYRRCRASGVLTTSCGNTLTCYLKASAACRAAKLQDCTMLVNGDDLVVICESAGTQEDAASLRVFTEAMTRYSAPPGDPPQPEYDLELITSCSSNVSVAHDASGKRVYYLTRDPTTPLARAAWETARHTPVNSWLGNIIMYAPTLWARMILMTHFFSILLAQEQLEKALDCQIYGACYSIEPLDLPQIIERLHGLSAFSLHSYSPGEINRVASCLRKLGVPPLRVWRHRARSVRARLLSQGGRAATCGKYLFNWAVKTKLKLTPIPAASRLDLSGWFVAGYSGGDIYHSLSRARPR
Briefly, 50 μl reactions containing 20 mM HEPES (pH 7.3), 7.5 mM DTT, 20 units/ml RNasIN, 0.5 μg/ml biotinylated oligoG12, 5 μg/ml polyC, 5 μM GTP, 20 μCi/ml [^3H]-GTP, 10 mM MgCl2, 60 mM NaCl, 100 μg/ml BSA, and 50 nM NS5B (Δ21) were incubated at room temperature for three hours in 96-well plates with or without test compounds. Assay was terminated by the addition of 50 μl 10 mg/ml streptavidin-coated SPA beads supplemented with 100 mM EDTA, and the incorporation of labeled GTP determined by a TopCount Scintillation Counter. IC50 values were calculated from single experiments using 11 serial 2-fold dilutions (0.05-50 μM), and data were considered reliable only when the IC50 value of a positive internal control was within standard deviation range.
As to `O=C(Cn1nc(NS(=O)(=O)c2ccc(Br)c(Br)c2)cc1C(=O)N[C@H]1CCCC[C@@H]1OCc1ccccc1)N[C@H]1CCCC[C@@H]1OCc1ccccc1` [Compound 58], the IC50 lay in the range of 0.1 to 1 µM. Same read-out and setting: the figure for `CCCCOCCCNC(=O)c1cc(C(=O)N[C@H]2CCCC[C@@H]2OCc2ccccc2)n(CC(=O)N[C@H]2CCCC[C@@H]2OCc2ccccc2)n1` [Compound 93] is 0.1 to 1 µM; for `Cc1ccc(OCC2CCCCC2)c(NC(=O)c2cc(C(=O)Nc3nnn[nH]3)nn2CC(=O)N[C@H]2CCCC[C@@H]2OCc2ccccc2)c1` [Compound 125] it is 0.1 to 1 µM.

With `CCCCNC(=O)c1cc(C(=O)N[C@H]2CCCC[C@@H]2OCc2ccccc2)n(CC(=O)N[C@H]2CCCC[C@@H]2OCc2ccccc2)n1` [Compound 110], the IC50 is 0.1 to 1 µM. On to `O=C(Cn1nc(NS(=O)(=O)c2ccc([N+](=O)[O-])cc2)cc1C(=O)N[C@H]1CCCC[C@@H]1OCc1ccccc1)N[C@H]1CCCC[C@@H]1OCc1ccccc1` [Compound 85], for which the IC50 is 0.1 to 1 µM.

With `CS(=O)(=O)NC(=O)c1cc(C(=O)N[C@H]2CCCC[C@@H]2OCc2ccccc2)n(CC(=O)N[C@H]2CCCC[C@@H]2OCc2ccccc2)n1` [Compound 155], the IC50 lay within 0.1 to 1 µM. With `O=C(Cn1nc(NS(=O)(=O)c2cccc3ccccc23)cc1C(=O)N[C@H]1CCCC[C@@H]1OCc1ccccc1)N[C@H]1CCCC[C@@H]1OCc1ccccc1` [Compound 55], the IC50 lay within 0.1 to 1 µM. For the molecule `O=C(Cn1nc(C(=O)NOCc2cccc3ccccc23)cc1C(=O)N[C@H]1CCCC[C@@H]1OCc1ccccc1)N[C@H]1CCCC[C@@H]1OCc1ccccc1` [Compound 68], the IC50 was in the range of 0.1 to 1 µM. On the same count and under the same terms, the figure for `O=C(Cn1nc(CO)cc1C(=O)N[C@H]1CCCC[C@@H]1OCc1ccccc1)N[C@H]1CCCC[C@@H]1OCc1ccccc1` [Compound 161] is 0.1 to 1 µM; for `Cc1ccc(OCC(C)(C)C)c(NC(=O)c2cc(C(=O)O)nn2CC(=O)N[C@H]2CCCC[C@@H]2OCc2ccccc2)c1` [Compound 114] it is 0.1 to 1 µM.

As for `O=C(Cn1nc(C(=O)O)cc1C(=O)N[C@H]1CCCC[C@@H]1OCc1ccccc1)N[C@H]1CCCC[C@@H]1NCc1ccccc1` [Compound 166], the IC50 is 0.1 to 1 µM. The same measure, in the same setting: the figure for `COc1ccccc1NC(=O)c1cc(C(=O)N[C@H]2CCCC[C@@H]2OCc2ccccc2)n(CC(=O)N[C@H]2CCCC[C@@H]2OCc2ccccc2)n1` [Compound 73] is 0.1 to 1 µM; for `O=C(Cn1nc(NS(=O)(=O)Cc2ccccc2)cc1C(=O)N[C@H]1CCCC[C@@H]1OCc1ccccc1)N[C@H]1CCCC[C@@H]1OCc1ccccc1` [Compound 84] it is 0.1 to 1 µM; for `O=C(Cn1nc(NC(=O)c2ccccc2)cc1C(=O)N[C@H]1CCCC[C@@H]1OCc1ccccc1)N[C@H]1CCCC[C@@H]1OCc1ccccc1` [Compound 91] it is 0.1 to 1 µM. On the same count and under the same terms, the result for `O=C(Cn1nc(NS(=O)(=O)c2ccc(Cl)c(Cl)c2)cc1C(=O)N[C@H]1CCCC[C@@H]1OCc1ccccc1)N[C@H]1CCCC[C@@H]1OCc1ccccc1` [Compound 61] reads 0.1 to 1 µM. On to `O=C(Cn1nc(C(=O)NCCCc2ccccc2)cc1C(=O)N[C@H]1CCCC[C@@H]1OCc1ccccc1)N[C@H]1CCCC[C@@H]1OCc1ccccc1` [Compound 104], for which the IC50 is 0.1 to 1 µM. For `CN(C)c1cccc2c(S(=O)(=O)Nc3cc(C(=O)N[C@H]4CCCC[C@@H]4OCc4ccccc4)n(CC(=O)N[C@H]4CCCC[C@@H]4OCc4ccccc4)n3)cccc12` [Compound 113], the IC50 lay within 0.1 to 1 µM.

As for `CCOC(=O)c1cc(C(=O)N[C@H]2CCCC[C@@H]2OCc2ccccc2)n(CS(=O)(=O)N[C@H]2CCCC[C@@H]2OCc2ccccc2)n1` [Compound 152], the IC50 is 0.1 to 1 µM. For the molecule `O=C(Cn1nc(C(=O)NC2CCCC2)cc1C(=O)N[C@H]1CCCC[C@@H]1OCc1ccccc1)N[C@H]1CCCC[C@@H]1OCc1ccccc1` [Compound 128], the half-maximal inhibitory concentration (IC50) is 0.1 to 1 µM.

Turning to `O=C(Cn1nc(C(=O)NCCc2ccccc2)cc1C(=O)N[C@H]1CCCC[C@@H]1OCc1ccccc1)N[C@H]1CCCC[C@@H]1OCc1ccccc1` [Compound 131], the IC50 is 0.1 to 1 µM.

Turning to `CC(C)CNC(=O)c1cc(C(=O)N[C@H]2CCCC[C@@H]2OCc2ccccc2)n(CC(=O)N[C@H]2CCCC[C@@H]2OCc2ccccc2)n1` [Compound 77], the IC50 lay within 0.1 to 1 µM. On the same count and under the same terms, the figure for `CC(C)S(=O)(=O)Nc1cc(C(=O)N[C@H]2CCCC[C@@H]2OCc2ccccc2)n(CC(=O)N[C@H]2CCCC[C@@H]2OCc2ccccc2)n1` [Compound 78] is 0.1 to 1 µM.

The experiment is the same for the next values; noted with them: Δ21 Activity (IC50 μM), 50 nM NS5B (Δ21), class symbols.
Turning to `Cc1ccc(OCn2nc(C)cc2C)c(NC(=O)c2cc(C(=O)O)nn2CC(=O)N[C@H]2CCCC[C@@H]2OCc2ccccc2)c1` [Compound 208], the IC50 is more than 1 µM. The same measure, in the same setting: the figure for `Nc1cc(C(=O)N[C@H]2CCCC[C@@H]2OCc2ccccc2)n(CC(=O)NC2CCCC[C@@H]2OCc2ccccc2)n1` (stereo partly drawn) [Compound 205] is more than 1 µM; for `Cc1ccc(OCC2CCC2)c(NC(=O)c2cc(C(=O)O)nn2CC(=O)N[C@H]2CCCC[C@@H]2OCc2ccccc2)c1` [Compound 9] it is less than 0.05 µM.

With `COC(=O)CCCCCNC(=O)CCCCCNC(=O)c1cc(C(=O)N[C@H]2CCCC[C@@H]2OCc2ccccc2)n(CC(=O)N[C@H]2CCCC[C@@H]2OCc2ccccc2)n1` [Compound 184], the IC50 is more than 1 µM. Molecule `O=C(Cn1nc(-c2nnn[nH]2)cc1C(=O)N[C@H]1CCCC[C@@H]1OCc1ccccc1)N[C@H]1CCCC[C@@H]1OCc1ccccc1` (stereo in doubt) [Compound 18, 2-[(2-benzyloxy-cyclohexylcarbamoyl)-methyl]-5-(1H-tetrazol-5-yl)-2H-pyrazole-3-carboxylic acid (2-benzyloxy-cyclohexyl)-amide] registered an IC50 of 0.05 to 0.1 µM. Same read-out and setting: the figure for `COc1ccc(NC(=O)c2cc(C(=O)Nc3ccccc3OCc3ccccc3)n(CC(=O)N[C@H]3CCCC[C@@H]3OCc3ccccc3)n2)cc1` [Compound 29] is 0.05 to 0.1 µM; for `CC(=O)Nc1cc(C(=O)N[C@H]2CCCC[C@@H]2OCc2ccccc2)n(CC(=O)NC2CCCC[C@@H]2OCc2ccccc2)n1` (stereo partly drawn) [Compound 196] it is more than 1 µM. Molecule `CCOC(=O)c1cc(C(=O)N[C@H]2CCCC[C@@H]2OCc2ccccc2)n(C(C)C(=O)N[C@H]2CCCC[C@@H]2OCc2ccccc2)n1` (stereo partly drawn) [Compound 186] had an IC50 of more than 1 µM. Still for that read-out and setting: the result for `CC(O)(c1ccc(Cl)cc1)c1cc(C(=O)N[C@H]2CCCC[C@@H]2OCc2ccccc2)n(CC(=O)N[C@H]2CCCC[C@@H]2OCc2ccccc2)n1` (stereo partly drawn) [Compound 180] reads more than 1 µM; that for `O=C(Cn1nc(-c2nnn[nH]2)cc1C(=O)Nc1ccccc1OCc1ccccc1)N[C@H]1CCCC[C@@H]1OCc1ccccc1` [Compound 25], 0.05 to 0.1 µM. On the same count and under the same terms, the result for `Cc1ccc(OCc2ccccc2)c(NC(=O)c2cc(NS(=O)(=O)c3ccc(Cl)cc3)nn2CC(=O)N[C@H]2CCCC[C@@H]2OCc2ccccc2)c1` [Compound 44] reads 0.05 to 0.1 µM.

The same experiment, now with this note: Δ21 Activity (IC50 μM), 50 nM NS5B (Δ21), numeric values.
`O=C(Cn1nc(NS(=O)(=O)c2ccc(Br)cc2)cc1C(=O)N[C@H]1CCCC[C@@H]1OCc1ccccc1)N[C@H]1CCCC[C@@H]1OCc1ccccc1` [drawing 252] came in with an IC50 of 0.041 µM. The molecule `O=C(Cn1nc(C(=O)O)cc1C(=O)Nc1cc(C(F)(F)F)ccc1OCc1ccccc1)N[C@H]1CCCC[C@@H]1OCc1ccccc1` [drawing 253] came in with an IC50 of 0.041 µM. Still for that read-out and setting: the result for `C[C@@H](NC(=O)c1cc(C(=O)N[C@H]2CCCC[C@@H]2OCc2ccccc2)n(CC(=O)N[C@H]2CCCC[C@@H]2OCc2ccccc2)n1)c1cccc2ccccc12` [drawing 246] reads 0.15 µM.
